Counter-ions that a name gives are not always drawn. Like-named read-outs stand apart in the source and are kept apart here.
Target: T1, recombinant full-length USP7 (Homo sapiens, UniProt Q93009)
T1 construct: A 25 μl reaction volume containing recombinant full-length USP7 (62 pM)
Experiment: USP7-mediated ubiquitin-rhodamine cleavage assay
Assay type: biochemical
Conditions: recombinant full-length USP7 62 pM, ubiquitin-rhodamine 100 nM, 1 hour reaction at room temperature
In short: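 Compounds are first incubated with 62 pM enzyme for 30 min at room temperature in pH 7.3 HEPES buffer containing TCEP and BSA. Cleavage of 100 nM ubiquitin-rhodamine proceeds for 1 h before an acid quench, and IC50 is derived from fluorescence.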

[1] = 30-minute pre-incubation, read-out: Potency (USP7 IC50)
[2] = 30-minute incubation with compound, read-out: Potency: USP7 IC50

T1 sequence (Q93009 whole entry): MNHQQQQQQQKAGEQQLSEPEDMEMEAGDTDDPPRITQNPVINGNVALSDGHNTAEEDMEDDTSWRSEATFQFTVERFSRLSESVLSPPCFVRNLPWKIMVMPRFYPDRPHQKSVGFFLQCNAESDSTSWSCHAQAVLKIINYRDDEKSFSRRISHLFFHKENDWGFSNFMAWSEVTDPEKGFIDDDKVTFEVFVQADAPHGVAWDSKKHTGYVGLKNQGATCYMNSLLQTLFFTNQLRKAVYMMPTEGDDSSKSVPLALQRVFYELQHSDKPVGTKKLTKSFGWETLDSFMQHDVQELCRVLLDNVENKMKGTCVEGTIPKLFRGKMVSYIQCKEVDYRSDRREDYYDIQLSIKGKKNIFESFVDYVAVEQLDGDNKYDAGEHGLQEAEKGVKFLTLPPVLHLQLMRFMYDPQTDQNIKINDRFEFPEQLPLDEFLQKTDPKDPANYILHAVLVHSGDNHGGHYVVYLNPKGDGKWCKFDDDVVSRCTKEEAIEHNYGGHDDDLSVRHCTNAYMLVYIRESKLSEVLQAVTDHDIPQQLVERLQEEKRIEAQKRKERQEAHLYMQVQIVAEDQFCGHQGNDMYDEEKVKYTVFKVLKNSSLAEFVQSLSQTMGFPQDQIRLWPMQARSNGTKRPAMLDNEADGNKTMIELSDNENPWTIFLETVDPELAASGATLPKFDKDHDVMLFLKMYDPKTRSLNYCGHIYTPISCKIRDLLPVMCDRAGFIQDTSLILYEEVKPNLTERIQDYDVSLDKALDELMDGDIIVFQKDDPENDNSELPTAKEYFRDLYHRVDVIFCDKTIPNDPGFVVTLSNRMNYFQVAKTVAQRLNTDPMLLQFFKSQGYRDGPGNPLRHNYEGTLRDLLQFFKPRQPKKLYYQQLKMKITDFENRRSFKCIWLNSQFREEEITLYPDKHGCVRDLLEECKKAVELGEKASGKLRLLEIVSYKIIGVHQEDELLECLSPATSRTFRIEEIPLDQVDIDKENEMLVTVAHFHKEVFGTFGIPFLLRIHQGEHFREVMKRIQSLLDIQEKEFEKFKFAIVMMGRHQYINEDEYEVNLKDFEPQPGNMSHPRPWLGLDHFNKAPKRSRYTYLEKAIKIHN

Compound	IC50 [1] [µM]	IC50 [2] [µM]	also measured
Cc1cc(Cl)cc(-c2ncnc3cc(Cn4c(=O)ccn(C(C)C)c4=O)sc23)c1O[C@H]1CCNC[C@@H]1F [Example 564, 3-[[4-[5-chloro-2-[[(3S,4S)-3-fluoro-4-piperidyl]oxy]-3-methyl-phenyl]thieno[3,2-d]pyrimidin-6-yl]methyl]-1-isopropyl-pyrimidine-2,4-dione]	< 1		
CCC(O)c1cc2nccc(-c3cc(C#N)cc(C)c3OCC3(F)CNC3)c2s1 (stereo not drawn) [Example 36, 4-((3-Fluoroazetidin-3-yl)methoxy)-3-(2-(1-hydroxypropyl)thieno[3,2-b]pyridin-7-yl)-5-methylbenzonitrile]		1 to 10	
CCC(O)c1cc2nccc(-c3cc(Cl)cc(C)c3OC3CCNC3=O)c2s1 (stereo not drawn) [Example 87, 3-(4-Chloro-2-(2-(1-hydroxypropyl)thieno[3,2-b]pyridin-7-yl)-6-methylphenoxy)pyrrolidin-2-one]		10 to 30	
Cc1cc(Cl)cc(-c2ncnc3cc(CN4C(=O)C5CCCC5C4=O)sc23)c1O[C@@H]1CNC[C@@H]1F (stereo partly drawn) [Example 158, 2-((4-(5-Chloro-2-(((3R,4S)-4-fluoropyrrolidin-3-yl)oxy)-3-methylphenyl)thieno[3,2-d]pyrimidin-6-yl)methyl)tetrahydrocyclopenta[c]pyrrole-1,3(2H,3aH)-dione]		< 1	
Cc1cc(Cl)cc(-c2ncnc3cc(CN4C(=O)CCC4=O)sc23)c1OC1CCNCC1 [Example 177, 1-((4-(5-Chloro-3-methyl-2-(piperidin-4-yloxy)phenyl)thieno[3,2-d]pyrimidin-6-yl)methyl)pyrrolidine-2,5-dione]		< 1	
Cc1cc(Cl)cc(-c2ccnc3cc(CO)sc23)c1O[C@@H]1CN[C@@H](C)C1 [Example 60, (7-(5-Chloro-3-methyl-2-(((3S,5S)-5-methylpyrrolidin-3-yl)oxy)phenyl)thieno[3,2-b]pyridin-2-yl)methanol]		10 to 30	
Cc1cc(Cl)cc(-c2ccnc3cc(Cn4c(=O)ccn(CC(F)(F)F)c4=O)sc23)c1O[C@H]1C[C@@H]2NCCO[C@H]2C1 [Example 694, 3-[[7-[2-[[(4aS,6S,7aS)-2,3,4,4a,5,6,7,7a-octahydrocyclopenta[b][1,4]oxazin-6-yl]oxy]-5-chloro-3-methyl-phenyl]thieno[3,2-b]pyridin-2-yl]methyl]-1-(2,2,2-trifluoroethyl)pyrimidine-2,4-dione]			IC50 (30-minute incubation, read-out: Potency (USP7 IC50)): < 1 µM
Cc1cc(Cl)cc(-c2ncnc3cc(CN4C(=O)C5C(C4=O)C5(C)C)sc23)c1O[C@@H]1CCN(C)C[C@@H]1C (stereo partly drawn) [Example 373, 3-[[4-[5-chloro-2-[[(3S,4R)-1,3-dimethyl-4-piperidyl]oxy]-3-methyl-phenyl]thieno[3,2-d]pyrimidin-6-yl]methyl]-6,6-dimethyl-3-azabicyclo[3.1.0]hexane-2,4-dione dihydrochloride]		< 1	
Cc1cc(Cl)cc(-c2ccnc3cc(CN4C(=O)CCC4=O)sc23)c1O[C@H]1CCNC[C@@H]1C [Example 223, 1-((7-(5-Chloro-3-methyl-2-(((3S,4S)-3-methylpiperidin-4-yl)oxy)phenyl)thieno[3,2-b]pyridin-2-yl)methyl)pyrrolidine-2,5-dione]		< 1	
Cc1cc(C(F)(F)F)cc(-c2ccnc3cc(Cn4c(=O)ccn(C)c4=O)sc23)c1O[C@@H]1CC[C@@H](N)C1 [Example 456, 3-[[7-[2-[(1R,3R)-3-aminocyclopentoxy]-3-methyl-5-(trifluoromethyl)phenyl]thieno[3,2-b]pyridin-2-yl]methyl]-1-methyl-pyrimidine-2,4-dione dihydrochloride]	< 1		
Cc1cc(Cl)cc(-c2ccnc3cc(CO)sc23)c1OCC1(C)CNC1 [Example 17, (7-(5-Chloro-3-methyl-2-((3-methylazetidin-3-yl)methoxy)phenyl)thieno[3,2-b]pyridin-2-yl)methanol]		1 to 10	
Cc1cc(Cl)cc(-c2ccnc3cc(CN4C(=O)CCC4=O)sc23)c1OCC1(F)CNC1 [Example 15, 1-((7-(5-Chloro-2-((3-fluoroazetidin-3-yl)methoxy)-3-methylphenyl)thieno[3,2-b]pyridin-2-yl)methyl)pyrrolidine-2,5-dione]		< 1	
Cc1cc(Cl)cc(-c2ccnc3cc(CN4C(=O)CCC4=O)sc23)c1O[C@H]1CNCC[C@@H]1F [Example 425, 1-[[7-[5-chloro-2-[[(3S,4S)-4-fluoro-3-piperidyl]oxy]-3-methyl-phenyl]thieno[3,2-b]pyridin-2-yl]methyl]pyrrolidine-2,5-dione]	< 1		
Cc1cc(Cl)cc(-c2ccncc2CCCN2C(=O)CCC2=O)c1OC1CNC[C@@H]1F (stereo partly drawn) [Example 409, 1-[3-[4-[5-chloro-2-[(4S)-4-fluoropyrrolidin-3-yl]oxy-3-methyl-phenyl]-3-pyridyl]propyl]pyrrolidine-2,5-dione; 2,2,2-trifluoroacetic acid]	1 to 10		
Cc1cc(Cl)cc(-c2ccnc3cc(CN4C(=O)C5C(C4=O)C5(C)C)sc23)c1OCC1(C)CNC1 (stereo not drawn) [Example 400, 3-[[7-[5-chloro-3-methyl-2-[(3-methylazetidin-3-yl)methoxy]phenyl]thieno[3,2-b]pyridin-2-yl]methyl]-6,6-dimethyl-3-azabicyclo[3.1.0]hexane-2,4-dione]		< 1	
O=C1CCC(=O)N1Cc1cc2nccc(-c3cc(Cl)cc(C(F)F)c3OC3CCNCC3)c2s1 [Example 431, 1-[[7-[5-chloro-3-(difluoromethyl)-2-(4-piperidyloxy)phenyl]thieno[3,2-b]pyridin-2-yl]methyl]pyrrolidine-2,5-dione dihydrochloride]	< 1		

Now from value to molecule, other results behind:

IC50 [1] [µM]	IC50 [2] [µM]	Compound	also measured
< 1		Cc1cc(Cl)cc(-c2ccnc3cc(Cn4c(=O)ccn(CC(F)(F)F)c4=O)sc23)c1O[C@@H]1C[C@@H]2C[C@H]1CN2 [Example 637, 3-[[7-[2-[[(1S,4S,5R)-2-azabicyclo[2.2.1]heptan-5-yl]oxy]-5-chloro-3-methyl-phenyl]thieno[3,2-b]pyridin-2-yl]methyl]-1-(2,2,2-trifluoroethyl)pyrimidine-2,4-dione; 2,2,2-trifluoroacetic acid]	
< 1		Cc1cc(Cl)cc(-c2ccnc3cc(Cn4c(=O)ccn(CC(F)(F)F)c4=O)sc23)c1OC1CCCCC1 [Example 665, 3-[[7-[5-chloro-2-(cyclohexoxy)-3-methyl-phenyl]thieno[3,2-b]pyridin-2-yl]methyl]-1-(2,2,2-trifluoroethyl)pyrimidine-2,4-dione]	
	< 1	Cc1cc(Cl)cc(-c2ccnc3cc(CN4C(=O)CCC4=O)sc23)c1O[C@H]1CC[C@H](N2CCC2)C1 [Example 157, 1-((7-(2-(((1S,3S)-3-(Azetidin-1-yl)cyclopentyl)oxy)-5-chloro-3-methylphenyl)thieno[3,2-b]pyridin-2-yl)methyl)pyrrolidine-2,5-dione]	
	< 1	CN[C@@H]1CC[C@@H](Oc2c(C)cc(Cl)cc2-c2ccnc3cc(CN4C(=O)CCC4=O)sc23)C1 [Example 53, 1-((7-(5-Chloro-3-methyl-2-(((1R,3R)-3-(methylamino)cyclopentyl)oxy)phenyl)thieno[3,2-b]pyridin-2-yl)methyl)pyrrolidine-2,5-dione]	
	< 1	Cc1cc(Cl)cc(-c2ccnc3cc(CN4C(=O)C5CCCCC5C4=O)sc23)c1O[C@@H]1CNC[C@@H]1F (stereo partly drawn) [Example 142, 2-((7-(5-Chloro-2-(((3R,4S)-4-fluoropyrrolidin-3-yl)oxy)-3-methylphenyl)thieno[3,2-b]pyridin-2-yl)methyl)hexahydro-1H-isoindole-1,3(2H)-dione]	
	< 1	Cc1cc(Cl)cc(-c2ccnc3cc(Cn4c(=O)ccn(CC(F)(F)F)c4=O)sc23)c1O[C@@H]1CC[C@@H](N)C1 [Example 59, 3-((7-(2-(((1R,3R)-3-Aminocyclopentyl)oxy)-5-chloro-3-methylphenyl)thieno[3,2-b]pyridin-2-yl)methyl)-1-(2,2,2-trifluoroethyl)pyrimidine-2,4(1H,3H)-dione]	
< 1		Cc1cc(Cl)cc(-c2ncnc3cc(Cn4c(=O)ccn(C)c4=O)sc23)c1O[C@H]1CCCNCC1 [Example 582, 3-[[4-[2-[(4S)-azepan-4-yl]oxy-5-chloro-3-methyl-phenyl]thieno[3,2-d]pyrimidin-6-yl]methyl]-1-methyl-pyrimidine-2,4-dione]	
< 1		Cc1cc(Cl)cc(-c2ccnc3cc(Cn4c(=O)ccn(C)c4=O)sc23)c1OC1CC2CC1N(C(C)C)C2 (stereo not drawn) [Example 474, 3-[[7-[5-chloro-2-[(3-isopropyl-3-azabicyclo[2.2.1]heptan-5-yl)oxy]-3-methyl-phenyl]thieno[3,2-b]pyridin-2-yl]methyl]-1-methyl-pyrimidine-2,4-dione]	
	< 1	Cc1cc(Cl)cc(-c2ccnc3cc(CN4C(=O)NC(C)(C)C4=O)sc23)c1OC1CCNCC1 [Example 185, 3-((7-(5-Chloro-3-methyl-2-(piperidin-4-yloxy)phenyl)thieno[3,2-b]pyridin-2-yl)methyl)-5,5-dimethylimidazolidine-2,4-dione]	
< 1		Cc1cc(Cl)cc(-c2ccnc3cc(Cn4c(=O)ccn(C)c4=O)sc23)c1OC1CCCNCC1F (stereo not drawn) [Example 471, 3-[[7-[5-chloro-2-(3-fluoroazepan-4-yl)oxy-3-methyl-phenyl]thieno[3,2-b]pyridin-2-yl]methyl]-1-methyl-pyrimidine-2,4-dione]	
< 1		Cc1cc(Cl)cc(-c2ccnc3cc(Cn4c(=O)ccn(CC(F)(F)F)c4=O)sc23)c1OC1CCNCC1 [Example 568, 3-[[7-[5-chloro-3-methyl-2-(4-piperidyloxy)phenyl]thieno[3,2-b]pyridin-2-yl]methyl]-1-(2,2,2-trifluoroethyl)pyrimidine-2,4-dione]	
